Source: US8343993B2, “Hydroxyalkyl substituted imidazonaphthyridines” (3M Innovative Properties Company, priority 2005, dated 2013)
Where two headings read alike, the source gives them in different places.

Tests used:
IFN-α = experiment: Cytokine induction in human cells (PBMC): IFN-α secreted into culture media, ELISA; format: cell-based; settings: 30-0.014 μM, lowest concentration inducing over 20 pg/mL, median where several experiments, read-out: Minimum Effective Concentration IFN
Description: (§1) An in vitro human blood cell system is used to assess cytokine induction. Activity is based on the measurement of interferon (α) and tumor necrosis factor (α) (IFN-α, and TNF-α, respectively) secreted into culture media as described by Testerman et. al. in “Cytokine Induction by the Immunomodulators Imiquimod and S-27609”, Journal of Leukocyte Biology, 58, 365-372 (September, 1995).
(§2) Whole blood from healthy human donors is collected by venipuncture into vacutainer tubes or syringes containing EDTA. Peripheral blood mononuclear cells (PBMC) are separated from whole blood by density gradient centrifugation using HISTOPAQUE-1077 (Sigma, St. Louis, Mo.) or Ficoll-Paque Plus (Amersham Biosciences Piscataway, N.J.). Blood is diluted 1:1 with Dulbecco's Phosphate Buffered Saline (DPBS) or Hank's Balanced Salts Solution (HBSS). Alternately, whole blood is placed in Accuspin (Sigma) or LeucoSep (Greiner Bio-One, Inc., Longwood Fla.) centrifuge frit tubes containing density gradient medium. The PBMC layer is collected and washed twice with DPBS or HBSS and re-suspended at 4×10^6 cells/mL in RPMI complete. The PBMC suspension is added to 96 well flat bottom sterile tissue culture plates containing an equal volume of RPMI complete media containing test compound.
(§3) The compounds are solubilized in dimethyl sulfoxide (DMSO). The DMSO concentration should not exceed a final concentration of 1% for addition to the culture wells. The compounds are generally tested at concentrations ranging from 30-0.014 μM. Controls include cell samples with media only, cell samples with DMSO only (no compound), and cell samples with reference compound.
(§4) The solution of test compound is added at 60 μM to the first well containing RPMI complete and serial 3 fold dilutions are made in the wells. The PBMC suspension is then added to the wells in an equal volume, bringing the test compound concentrations to the desired range (usually 30-0.014 μM). The final concentration of PBMC suspension is 2×10^6 cells/mL. The plates are covered with sterile plastic lids, mixed gently and then incubated for 18 to 24 hours at 37° C. in a 5% carbon dioxide atmosphere.
(§5) Following incubation the plates are centrifuged for 10 minutes at 1000 rpm (approximately 200×g) at 4° C. The cell-free culture supernatant is removed and transferred to sterile polypropylene tubes. Samples are maintained at −30 to −70° C. until analysis. The samples are analyzed for IFN-α by ELISA and for TNF-α by IGEN/BioVeris Assay.
IFN-α concentration is determined with a human multi-subtype colorimetric sandwich ELISA (Catalog Number 41105) from PBL Biomedical Laboratories, Piscataway, N.J. Results are expressed in pg/mL.
Analysis of the data has two steps. First, the greater of the mean DMSO (DMSO control wells) or the experimental background (usually 20 pg/mL for IFN-α and 40 pg/mL for TNF-α) is subtracted from each reading. If any negative values result from background subtraction, the reading is reported as “*” and is noted as not reliably detectable. In subsequent calculations and statistics, “*” is treated as a zero. Second, all, background subtracted values are multiplied by a single adjustment ratio to decrease experiment to experiment variability. The adjustment ratio is the area of the reference compound in the new experiment divided by the expected area of the reference compound based on the past 61 experiments (unadjusted readings). […] The reference compound used is 2-[4-amino-2-ethoxymethyl-6,7,8,9-tetrahydro-α,α-dimethyl-1H-imidazo[4,5-c]quinolin-1-yl]ethanol hydrate (U.S. Pat. No. 5,352,784; Example 91) and the expected area is the sum of the median dose values from the past 61 experiments.
The minimum effective concentration is calculated based on the background-subtracted, reference-adjusted results for a given experiment and compound. […]

TNF-α = experiment: Cytokine induction in human cells (PBMC): TNF-α secreted into culture media, ORIGEN M-Series immunoassay; format: cell-based; settings: median where several experiments; for minimal effective concentration: 30-0.014 μM, lowest concentration inducing over 40 pg/mL, read-out: Minimum Effective Concentration TNF
Description: as §1, §2, §3, §4, §5
The TNF-α concentration is determined by ORIGEN M-Series Immunoassay and read on an IGEN M-8 analyzer from BioVeris Corporation, formerly known as IGEN International, Gaithersburg, Md. The immunoassay uses a human TNF-α capture and detection antibody pair (Catalog Numbers AHC3419 and AHC3712) from Biosource International, Camarillo, Calif. Results are expressed in pg/mL.
Analysis of the data has two steps. First, the greater of the mean DMSO (DMSO control wells) or the experimental background (usually 20 pg/mL for IFN-α and 40 pg/mL for TNF-α) is subtracted from each reading. If any negative values result from background subtraction, the reading is reported as “*” and is noted as not reliably detectable. In subsequent calculations and statistics, “*” is treated as a zero. Second, all, background subtracted values are multiplied by a single adjustment ratio to decrease experiment to experiment variability. The adjustment ratio is the area of the reference compound in the new experiment divided by the expected area of the reference compound based on the past 61 experiments (unadjusted readings). […] The reference compound used is 2-[4-amino-2-ethoxymethyl-6,7,8,9-tetrahydro-α,α-dimethyl-1H-imidazo[4,5-c]quinolin-1-yl]ethanol hydrate (U.S. Pat. No. 5,352,784; Example 91) and the expected area is the sum of the median dose values from the past 61 experiments. […]

melting point [°C] | SMILES | minimal effective concentration (IFN-α; Table 4, 18 to 24 hours) [µM] | minimal effective concentration (TNF-α; Table 4, 18 to 24 hours) [µM] | Maximal Response TNF (TNF-α; Table 4, background-subtracted, reference-adjusted, * = below background) | minimal effective concentration (IFN-α; Table 3, 18 to 24 hours) [µM] | minimal effective concentration (TNF-α; Table 3, 18 to 24 hours) [µM]
239 to 242 | CS(=O)(=O)NCCn1c(CO)nc2c(N)nc3cccnc3c21 [Example 4, N-[2-(4-Amino-2-hydroxymethyl-1H-imidazo[4,5-c][1,5]naphthyridin-1-yl)ethyl]methanesulfonamide] | 10 | > 30 | * (Below the experimental background of 40 pg/mL) | – | –
194 to 195 | CC(C)(O)Cn1c(CCO)nc2c(N)nc3cccnc3c21 [Example 7, 1-[4-Amino-2-(2-hydroxyethyl)-1H-imidazo[4,5-c][1,5]naphthyridin 1-yl]-2-methylpropan-2-ol] | 3.33 | 30 | – | 3.33 | 30
268 to 271 | CC(C)(Cn1c(CO)nc2c(N)nc3cccnc3c21)NS(C)(=O)=O [Example 2, N-[2-(4-Amino-2-hydroxymethyl-1H-imidazo[4,5-c][1,5]naphthyridin-1-yl)-1,1-dimethylethyl]methanesulfonamide] | 10 | 30 | – | – | –
